The supplement of paper PMC10307832

Legend:
Test in all cases: relative viability (nuclei count vs DMSO), 5 days (fraction); higher = more cells survive
R406 + Navitoclax = compound: COc1cc(Nc2ncc(F)c(Nc3ccc4c(n3)NC(=O)C(C)(C)O4)n2)cc(OC)c1OC [R406] + CC1(C)CCC(c2ccc(Cl)cc2)=C(CN2CCN(c3ccc(C(=O)NS(=O)(=O)c4ccc(N[C@H](CCN5CCOCC5)CSc5ccccc5)c(S(=O)(=O)C(F)(F)F)c4)cc3)CC2)C1 [Navitoclax] (partner 0.5 µM)
Summary of the method: (§1)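 Lung cancer cell lines were seeded in 1536-well plates and dosed by pin tool the next day, with either a single drug or a fixed anchor-drug dose combined with five library-drug doses (not always all listed) spaced in √10 steps. Five days later, one step fixed the cells and stained their nuclei (final 0.05% Triton X-100, 1% formaldehyde, 1 ug/ml Hoechst), and nuclei were counted on 4× images. Relative viability is the nuclei count in treated wells divided by the count in vehicle wells, and each value is the median of duplicate plates.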

Daporinad + Crizotinib = compound: O=C(/C=C/c1cccnc1)NCCCCC1CCN(C(=O)c2ccccc2)CC1 [Daporinad] + C[C@@H](Oc1cc(-c2cnn(C3CCNCC3)c2)cnc1N)c1c(Cl)ccc(F)c1Cl [Crizotinib] (partner 1 µM)
Summary of the method: as §1

Daporinad + Linsitinib = compound: O=C(/C=C/c1cccnc1)NCCCCC1CCN(C(=O)c2ccccc2)CC1 [Daporinad] + C[C@]1(O)C[C@@H](c2nc(-c3ccc4ccc(-c5ccccc5)nc4c3)c3c(N)nccn32)C1 [Linsitinib] (partner 1 µM)
Summary of the method: as §1

R406 + Palbociclib = compound: COc1cc(Nc2ncc(F)c(Nc3ccc4c(n3)NC(=O)C(C)(C)O4)n2)cc(OC)c1OC [R406] + CC(=O)c1c(C)c2cnc(Nc3ccc(N4CCNCC4)cn3)nc2n(C2CCCC2)c1=O [Palbociclib] (partner 0.5 µM)
Summary of the method: as §1

Row | Cell Line | relative viability (R406 + Navitoclax; first compound 0.08 µM) | relative viability (R406 + Navitoclax; first compound 0.253 µM) | relative viability (R406 + Navitoclax; first compound 0.8 µM) | relative viability (R406 + Navitoclax; first compound 2.53 µM) | relative viability (R406 + Navitoclax; first compound 8 µM) | relative viability (Daporinad + Crizotinib; first compound 0.0005 µM) | relative viability (Daporinad + Crizotinib; first compound 0.001581 µM) | relative viability (Daporinad + Crizotinib; first compound 0.005 µM) | relative viability (Daporinad + Crizotinib; first compound 0.01581 µM) | relative viability (Daporinad + Linsitinib; first compound 0.0005 µM) | relative viability (Daporinad + Linsitinib; first compound 0.001581 µM) | relative viability (Daporinad + Linsitinib; first compound 0.005 µM) | relative viability (Daporinad + Linsitinib; first compound 0.01581 µM) | relative viability (R406 + Palbociclib; first compound 0.08 µM) | relative viability (R406 + Palbociclib; first compound 0.253 µM) | relative viability (R406 + Palbociclib; first compound 0.8 µM) | relative viability (R406 + Palbociclib; first compound 2.53 µM) | relative viability (R406 + Palbociclib; first compound 8 µM)
1 | NCI-H3122 | 1.06 | 0.971 | 1.02 | 1.02 | 0.82 | 0.237 | 0.29 | 0.261 | 0.238 | 1.01 | 1.01 | 1.02 | 1 | 0.18 | 0.184 | 0.178 | 0.237 | 0.238
2 | PC-3 [JPC-3] | 0.828 | 0.819 | 0.833 | 0.685 | 0.6 | 1 | 1.02 | 1.11 | 1.01 | 0.898 | 0.99 | 0.963 | 0.955 | 0.518 | 0.591 | 0.582 | 0.549 | 0.45
3 | PC-14 | 1.01 | 1.05 | 1.04 | 0.984 | 0.836 | 0.911 | 0.876 | 0.913 | 0.651 | 1.03 | 1.04 | 0.884 | 0.905 | 0.58 | 0.666 | 0.735 | 0.346 | 0.146
4 | RERF-LC-KJ | 1.09 | 0.64 | 1.03 | 0.738 | 0.842 | 0.787 | 0.861 | 1.06 | 0.803 | 0.883 | 0.893 | 1.01 | 0.949 | 1.04 | 1.19 | 1.07 | 0.883 | 0.86
5 | SK-LU-1 | 0.483 | 1.2 | 0.725 | 0.385 | 0.145 | 0.942 | 0.958 | 1.18 | 0.892 | 1.26 | 1.13 | 1.05 | 1.09 | 0.392 | 0.423 | 0.367 | 0.258 | 0.191
6 | SK-MES-1 | 1.22 | 1.18 | 1.31 | 0.817 | 0.678 | 0.959 | 1.01 | 1.12 | 0.9 | 1.1 | 1.13 | 1.17 | 0.905 | 0.313 | 0.297 | 0.307 | 0.259 | 0.192
7 | SW 1573 | 0.956 | 1.1 | 1.2 | 0.794 | 0.5 | 0.834 | 0.831 | 0.728 | 0.479 | 0.889 | 0.848 | 0.747 | 0.551 | 0.402 | 0.364 | 0.467 | 0.32 | 0.127
